Results taken from publication PMC10905675, “INX-315, a Selective CDK2 Inhibitor, Induces Cell Cycle Arrest and Senescence in Solid Tumors” (Cancer Discovery, 2023).

Tests used:
Assay in all cases: SelectScreen LanthaScreen Binding
Settings in all cases: INX-0315 at 100nM
TNIK = molecular target: T1, TNIK (Homo sapiens, UniProt Q9UKE5)
T1 construct: purchased Thermo Fisher Scientific SelectScreen (plus Nanosyn / Reaction Biology for CDK/cyclin lines)
Method in brief: (§1)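 A single-dose pass at 100 nmol/L INX-315 in 1% DMSO came first. Curves of 10 points from 1 µmol/L to 0.0495 nmol/L followed, using standard predetermined assay settings.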

CAMK2G (CaMKII gamma) = molecular target: T2, CAMK2G (CaMKII gamma) (Homo sapiens, UniProt Q13555)
T2 construct: purchased Thermo Fisher Scientific SelectScreen (plus Nanosyn / Reaction Biology for CDK/cyclin lines)
Method in brief: as §1

BMPR2 = molecular target: T3, BMPR2 (Homo sapiens, UniProt Q13873)
T3 construct: purchased Thermo Fisher Scientific SelectScreen (plus Nanosyn / Reaction Biology for CDK/cyclin lines)
Method in brief: as §1

STK16 (PKL12) = molecular target: T4, STK16 (PKL12) (Homo sapiens, UniProt O75716)
T4 construct: purchased Thermo Fisher Scientific SelectScreen (plus Nanosyn / Reaction Biology for CDK/cyclin lines)
Method in brief: as §1

KIT V654A = molecular target: T5, KIT V654A (Homo sapiens, UniProt P10721, V654A)
T5 construct: purchased Thermo Fisher Scientific SelectScreen (plus Nanosyn / Reaction Biology for CDK/cyclin lines)
Method in brief: as §1

MAP3K2 (MEKK2) = molecular target: T6, MAP3K2 (MEKK2) (Homo sapiens, UniProt Q9Y2U5)
T6 construct: purchased Thermo Fisher Scientific SelectScreen (plus Nanosyn / Reaction Biology for CDK/cyclin lines)
Method in brief: as §1

TGFBR2 = molecular target: T7, TGFBR2 (Homo sapiens, UniProt P37173)
T7 construct: purchased Thermo Fisher Scientific SelectScreen (plus Nanosyn / Reaction Biology for CDK/cyclin lines)
T7 sequence (P37173 23-567): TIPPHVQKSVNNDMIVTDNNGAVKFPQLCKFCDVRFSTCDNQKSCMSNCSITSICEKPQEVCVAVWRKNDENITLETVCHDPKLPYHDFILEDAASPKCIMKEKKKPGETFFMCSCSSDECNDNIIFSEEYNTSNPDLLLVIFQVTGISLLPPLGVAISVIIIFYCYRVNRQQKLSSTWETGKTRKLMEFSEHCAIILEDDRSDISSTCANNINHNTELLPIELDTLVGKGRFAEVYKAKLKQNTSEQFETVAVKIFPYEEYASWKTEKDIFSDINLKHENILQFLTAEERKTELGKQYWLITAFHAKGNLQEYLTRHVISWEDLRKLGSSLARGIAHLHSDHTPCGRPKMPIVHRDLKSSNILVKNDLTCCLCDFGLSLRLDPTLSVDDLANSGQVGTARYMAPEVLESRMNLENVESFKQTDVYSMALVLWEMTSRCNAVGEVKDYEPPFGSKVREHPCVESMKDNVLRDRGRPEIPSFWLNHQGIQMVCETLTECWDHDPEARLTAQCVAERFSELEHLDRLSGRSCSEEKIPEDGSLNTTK
Method in brief: as §1

MAP2K2 (MEK2) = molecular target: T8, MAP2K2 (MEK2) (Homo sapiens, UniProt P36507)
T8 construct: purchased Thermo Fisher Scientific SelectScreen (plus Nanosyn / Reaction Biology for CDK/cyclin lines)
Method in brief: as §1

ACVRL1 (ALK1) = molecular target: T9, ACVRL1 (ALK1) (Homo sapiens, UniProt P37023)
T9 construct: purchased Thermo Fisher Scientific SelectScreen (plus Nanosyn / Reaction Biology for CDK/cyclin lines)
Method in brief: as §1

MAP4K1 (HPK1) = molecular target: T10, MAP4K1 (HPK1) (Homo sapiens, UniProt Q92918)
T10 construct: purchased Thermo Fisher Scientific SelectScreen (plus Nanosyn / Reaction Biology for CDK/cyclin lines)
Method in brief: as §1

PLK4 = molecular target: T11, PLK4 (Homo sapiens, UniProt O00444)
T11 construct: purchased Thermo Fisher Scientific SelectScreen (plus Nanosyn / Reaction Biology for CDK/cyclin lines)
Method in brief: as §1

ACVR2B = molecular target: T12, ACVR2B (Homo sapiens, UniProt Q13705)
T12 construct: purchased Thermo Fisher Scientific SelectScreen (plus Nanosyn / Reaction Biology for CDK/cyclin lines)
Method in brief: as §1

ULK3 = molecular target: T13, ULK3 (Homo sapiens, UniProt Q6PHR2)
T13 construct: purchased Thermo Fisher Scientific SelectScreen (plus Nanosyn / Reaction Biology for CDK/cyclin lines)
T13 sequence (Q6PHR2 whole entry): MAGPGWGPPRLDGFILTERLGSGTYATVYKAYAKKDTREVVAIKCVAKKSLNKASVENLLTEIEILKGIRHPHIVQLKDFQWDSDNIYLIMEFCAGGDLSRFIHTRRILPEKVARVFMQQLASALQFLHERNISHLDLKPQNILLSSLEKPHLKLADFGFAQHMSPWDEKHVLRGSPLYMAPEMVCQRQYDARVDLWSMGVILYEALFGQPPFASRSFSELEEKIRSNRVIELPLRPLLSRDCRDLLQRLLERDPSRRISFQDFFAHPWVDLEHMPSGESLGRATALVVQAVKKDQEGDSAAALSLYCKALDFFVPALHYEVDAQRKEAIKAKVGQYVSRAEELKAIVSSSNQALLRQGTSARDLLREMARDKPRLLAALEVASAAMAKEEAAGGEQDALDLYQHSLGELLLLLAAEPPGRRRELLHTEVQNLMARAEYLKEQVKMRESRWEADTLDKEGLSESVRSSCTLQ
Method in brief: as §1

KIT Y823D = molecular target: T14, KIT Y823D (Homo sapiens, UniProt P10721, Y823D)
T14 construct: purchased Thermo Fisher Scientific SelectScreen (plus Nanosyn / Reaction Biology for CDK/cyclin lines)
Method in brief: as §1

ABL1 H396P = molecular target: T15, ABL1 H396P (Homo sapiens, UniProt P00519, H396P)
T15 construct: purchased Thermo Fisher Scientific SelectScreen (plus Nanosyn / Reaction Biology for CDK/cyclin lines)
Method in brief: as §1

MKNK2 (MNK2) = molecular target: T16, MKNK2 (MNK2) (Homo sapiens, UniProt Q9HBH9)
T16 construct: purchased Thermo Fisher Scientific SelectScreen (plus Nanosyn / Reaction Biology for CDK/cyclin lines)
Method in brief: as §1

DDR2 = molecular target: T17, DDR2 (Homo sapiens, UniProt Q16832)
T17 construct: purchased Thermo Fisher Scientific SelectScreen (plus Nanosyn / Reaction Biology for CDK/cyclin lines)
Method in brief: as §1

AMPK (A1/B1/G3) = molecular target: T18, AMPK (A1/B1/G3) (Homo sapiens, UniProt Q13131)
T18 construct: purchased Thermo Fisher Scientific SelectScreen (plus Nanosyn / Reaction Biology for CDK/cyclin lines)
Method in brief: as §1

CDK11 (Inactive) = molecular target: T19, CDK11 (Inactive) (Homo sapiens, UniProt Q9BWU1)
T19 construct: purchased Thermo Fisher Scientific SelectScreen (plus Nanosyn / Reaction Biology for CDK/cyclin lines)
T19 sequence (Q9BWU1 whole entry): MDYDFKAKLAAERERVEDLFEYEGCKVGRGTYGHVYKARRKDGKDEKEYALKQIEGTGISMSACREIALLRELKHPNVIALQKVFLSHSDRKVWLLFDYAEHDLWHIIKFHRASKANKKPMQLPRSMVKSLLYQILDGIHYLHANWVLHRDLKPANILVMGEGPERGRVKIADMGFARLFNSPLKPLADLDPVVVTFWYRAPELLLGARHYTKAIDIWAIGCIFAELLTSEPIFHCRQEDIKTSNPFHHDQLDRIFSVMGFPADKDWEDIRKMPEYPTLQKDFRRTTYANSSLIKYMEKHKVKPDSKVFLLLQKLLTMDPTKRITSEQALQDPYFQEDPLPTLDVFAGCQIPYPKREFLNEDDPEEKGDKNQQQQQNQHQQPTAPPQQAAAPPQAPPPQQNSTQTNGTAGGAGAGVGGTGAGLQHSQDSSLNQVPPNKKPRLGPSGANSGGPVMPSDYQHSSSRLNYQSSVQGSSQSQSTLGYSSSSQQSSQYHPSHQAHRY
Method in brief: as §1

MYLK (MLCK) = molecular target: T20, MYLK (MLCK) (Homo sapiens, UniProt Q15746)
T20 construct: purchased Thermo Fisher Scientific SelectScreen (plus Nanosyn / Reaction Biology for CDK/cyclin lines)
Method in brief: as §1

TESK1 = molecular target: T21, TESK1 (Homo sapiens, UniProt Q15569)
T21 construct: purchased Thermo Fisher Scientific SelectScreen (plus Nanosyn / Reaction Biology for CDK/cyclin lines)
Method in brief: as §1

STK32B (YANK2) = molecular target: T22, STK32B (YANK2) (Homo sapiens, UniProt Q9NY57)
T22 construct: purchased Thermo Fisher Scientific SelectScreen (plus Nanosyn / Reaction Biology for CDK/cyclin lines)
T22 sequence (Q9NY57 whole entry): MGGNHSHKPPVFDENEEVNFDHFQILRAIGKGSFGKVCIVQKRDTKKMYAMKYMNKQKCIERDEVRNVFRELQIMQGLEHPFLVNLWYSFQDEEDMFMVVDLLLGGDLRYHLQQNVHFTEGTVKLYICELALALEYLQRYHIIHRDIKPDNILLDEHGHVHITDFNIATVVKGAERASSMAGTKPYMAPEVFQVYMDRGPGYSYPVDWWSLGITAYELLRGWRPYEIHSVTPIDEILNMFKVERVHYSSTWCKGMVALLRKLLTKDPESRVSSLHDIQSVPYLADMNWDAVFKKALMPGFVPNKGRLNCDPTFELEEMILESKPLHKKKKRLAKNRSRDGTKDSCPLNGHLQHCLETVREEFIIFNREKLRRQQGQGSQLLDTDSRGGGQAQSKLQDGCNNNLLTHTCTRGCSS
Method in brief: as §1

TLK1 = molecular target: T23, TLK1 (Homo sapiens, UniProt Q9UKI8)
T23 construct: purchased Thermo Fisher Scientific SelectScreen (plus Nanosyn / Reaction Biology for CDK/cyclin lines)
Method in brief: as §1

CDK2/cyclin O = molecular target: T24, CDK2/cyclin O (Homo sapiens, UniProt P24941)
T24 construct: purchased Thermo Fisher Scientific SelectScreen (plus Nanosyn / Reaction Biology for CDK/cyclin lines)
Method in brief: as §1

EPHA3 = molecular target: T25, EPHA3 (Homo sapiens, UniProt P29320)
T25 construct: purchased Thermo Fisher Scientific SelectScreen (plus Nanosyn / Reaction Biology for CDK/cyclin lines)
Method in brief: as §1

PRKACG (PRKAC gamma) = molecular target: T26, PRKACG (PRKAC gamma) (Homo sapiens, UniProt P22612)
T26 construct: purchased Thermo Fisher Scientific SelectScreen (plus Nanosyn / Reaction Biology for CDK/cyclin lines)
Method in brief: as §1

MET D1228H = molecular target: T27, MET D1228H (Homo sapiens, UniProt P08581, D1228H)
T27 construct: purchased Thermo Fisher Scientific SelectScreen (plus Nanosyn / Reaction Biology for CDK/cyclin lines)
T27 sequence (P08581 25-1390 D1228H): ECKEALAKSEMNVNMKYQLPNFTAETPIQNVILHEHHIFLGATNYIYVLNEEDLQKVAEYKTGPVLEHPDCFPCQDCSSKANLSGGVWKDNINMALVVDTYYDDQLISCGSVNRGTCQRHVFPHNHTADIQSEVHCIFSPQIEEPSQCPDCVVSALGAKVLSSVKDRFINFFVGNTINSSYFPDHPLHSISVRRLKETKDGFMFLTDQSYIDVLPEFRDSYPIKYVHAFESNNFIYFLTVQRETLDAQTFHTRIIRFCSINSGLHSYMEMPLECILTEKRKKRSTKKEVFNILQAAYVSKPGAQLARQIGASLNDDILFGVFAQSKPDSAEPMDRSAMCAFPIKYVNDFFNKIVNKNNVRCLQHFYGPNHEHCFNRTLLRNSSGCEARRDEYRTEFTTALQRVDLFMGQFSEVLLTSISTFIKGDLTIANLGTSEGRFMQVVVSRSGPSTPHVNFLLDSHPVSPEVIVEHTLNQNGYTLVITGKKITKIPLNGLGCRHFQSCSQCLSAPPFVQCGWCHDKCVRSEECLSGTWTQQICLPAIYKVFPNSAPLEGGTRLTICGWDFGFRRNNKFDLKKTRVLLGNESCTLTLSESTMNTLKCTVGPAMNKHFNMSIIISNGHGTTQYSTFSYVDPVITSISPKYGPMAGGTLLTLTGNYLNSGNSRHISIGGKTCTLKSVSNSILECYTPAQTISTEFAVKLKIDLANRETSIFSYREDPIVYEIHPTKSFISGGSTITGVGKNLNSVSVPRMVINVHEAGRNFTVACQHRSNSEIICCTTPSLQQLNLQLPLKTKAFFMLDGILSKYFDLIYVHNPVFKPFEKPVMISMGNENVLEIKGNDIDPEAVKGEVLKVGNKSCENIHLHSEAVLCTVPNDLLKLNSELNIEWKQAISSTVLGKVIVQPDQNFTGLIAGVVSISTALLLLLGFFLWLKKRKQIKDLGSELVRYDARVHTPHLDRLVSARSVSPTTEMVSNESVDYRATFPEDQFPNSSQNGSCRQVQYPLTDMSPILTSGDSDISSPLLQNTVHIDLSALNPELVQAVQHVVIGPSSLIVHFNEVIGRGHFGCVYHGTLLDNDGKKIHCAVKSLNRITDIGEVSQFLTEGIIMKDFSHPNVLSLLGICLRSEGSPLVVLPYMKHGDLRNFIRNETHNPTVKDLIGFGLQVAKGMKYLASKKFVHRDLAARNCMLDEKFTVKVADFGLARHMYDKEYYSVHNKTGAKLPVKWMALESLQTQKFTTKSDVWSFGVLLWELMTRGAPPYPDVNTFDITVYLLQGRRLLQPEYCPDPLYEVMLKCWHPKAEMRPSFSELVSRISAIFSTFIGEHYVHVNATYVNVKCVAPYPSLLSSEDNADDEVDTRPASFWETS
Method in brief: as §1

CDK5 (Inactive) = molecular target: T28, CDK5 (Inactive) (Homo sapiens, UniProt Q00535)
T28 construct: purchased Thermo Fisher Scientific SelectScreen (plus Nanosyn / Reaction Biology for CDK/cyclin lines)
Method in brief: as §1

CDK16 (PCTK1)/cyclin Y = molecular target: T29, CDK16 (PCTK1)/cyclin Y (Homo sapiens, UniProt Q00536)
T29 construct: purchased Thermo Fisher Scientific SelectScreen (plus Nanosyn / Reaction Biology for CDK/cyclin lines)
T29 sequence (Q00536 whole entry): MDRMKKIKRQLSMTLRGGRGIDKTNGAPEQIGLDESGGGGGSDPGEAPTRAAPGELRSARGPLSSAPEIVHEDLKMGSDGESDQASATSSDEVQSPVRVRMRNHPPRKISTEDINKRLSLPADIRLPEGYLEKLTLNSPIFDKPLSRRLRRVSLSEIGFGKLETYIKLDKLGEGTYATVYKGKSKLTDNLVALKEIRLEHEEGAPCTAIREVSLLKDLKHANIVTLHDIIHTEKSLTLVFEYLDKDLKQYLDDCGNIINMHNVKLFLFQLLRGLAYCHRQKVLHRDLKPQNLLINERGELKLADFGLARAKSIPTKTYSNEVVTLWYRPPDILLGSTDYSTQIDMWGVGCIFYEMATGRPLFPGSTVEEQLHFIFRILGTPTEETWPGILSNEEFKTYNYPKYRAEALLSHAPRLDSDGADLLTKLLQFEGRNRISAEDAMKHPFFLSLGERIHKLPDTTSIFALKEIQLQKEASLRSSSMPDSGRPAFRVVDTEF
T29 sequence (Q8ND76 whole entry partner): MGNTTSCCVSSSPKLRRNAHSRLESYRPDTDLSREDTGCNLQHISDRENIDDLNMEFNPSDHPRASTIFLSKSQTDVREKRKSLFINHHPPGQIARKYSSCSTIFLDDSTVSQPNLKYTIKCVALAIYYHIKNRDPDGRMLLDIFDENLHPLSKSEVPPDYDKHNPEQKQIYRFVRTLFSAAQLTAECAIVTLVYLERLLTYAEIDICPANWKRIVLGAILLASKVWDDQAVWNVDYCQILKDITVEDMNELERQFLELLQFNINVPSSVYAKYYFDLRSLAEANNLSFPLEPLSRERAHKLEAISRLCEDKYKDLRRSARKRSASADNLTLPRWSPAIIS
Method in brief: as §1

BRAF = molecular target: T30, BRAF (Homo sapiens, UniProt P15056)
T30 construct: purchased Thermo Fisher Scientific SelectScreen (plus Nanosyn / Reaction Biology for CDK/cyclin lines)
Method in brief: as §1

CDK8/cyclin C = molecular target: T31, CDK8/cyclin C (Homo sapiens, UniProt P49336)
T31 construct: purchased Thermo Fisher Scientific SelectScreen (plus Nanosyn / Reaction Biology for CDK/cyclin lines)
Method in brief: as §1

WNK2 = molecular target: T32, WNK2 (Homo sapiens, UniProt Q9Y3S1)
T32 construct: purchased Thermo Fisher Scientific SelectScreen (plus Nanosyn / Reaction Biology for CDK/cyclin lines)
Method in brief: as §1

TGFBR1 (ALK5) = molecular target: T33, TGFBR1 (ALK5) (Homo sapiens, UniProt P36897)
T33 construct: purchased Thermo Fisher Scientific SelectScreen (plus Nanosyn / Reaction Biology for CDK/cyclin lines)
Method in brief: as §1

MYO3A (MYO3 alpha) = molecular target: T34, MYO3A (MYO3 alpha) (Homo sapiens, UniProt Q8NEV4)
T34 construct: purchased Thermo Fisher Scientific SelectScreen (plus Nanosyn / Reaction Biology for CDK/cyclin lines)
Method in brief: as §1

STK32C (YANK3) = molecular target: T35, STK32C (YANK3) (Homo sapiens, UniProt Q86UX6)
T35 construct: purchased Thermo Fisher Scientific SelectScreen (plus Nanosyn / Reaction Biology for CDK/cyclin lines)
T35 sequence (Q86UX6 whole entry): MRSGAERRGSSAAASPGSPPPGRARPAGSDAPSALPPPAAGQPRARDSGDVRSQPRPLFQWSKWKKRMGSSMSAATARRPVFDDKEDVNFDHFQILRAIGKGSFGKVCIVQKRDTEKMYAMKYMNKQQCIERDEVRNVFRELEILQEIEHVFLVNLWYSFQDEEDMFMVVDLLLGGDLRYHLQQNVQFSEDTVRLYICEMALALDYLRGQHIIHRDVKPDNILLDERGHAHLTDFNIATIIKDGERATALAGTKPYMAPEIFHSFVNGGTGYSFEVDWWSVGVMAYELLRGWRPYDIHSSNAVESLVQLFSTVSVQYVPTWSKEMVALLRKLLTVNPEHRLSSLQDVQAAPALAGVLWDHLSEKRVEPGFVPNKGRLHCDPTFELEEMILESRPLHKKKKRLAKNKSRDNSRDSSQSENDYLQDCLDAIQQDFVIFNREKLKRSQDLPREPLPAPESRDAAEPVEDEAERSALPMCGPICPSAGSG
Method in brief: as §1

EPHA7 = molecular target: T36, EPHA7 (Homo sapiens, UniProt Q15375)
T36 construct: purchased Thermo Fisher Scientific SelectScreen (plus Nanosyn / Reaction Biology for CDK/cyclin lines)
Method in brief: as §1

[1] = molecular target: T37, MAP2K1 (MEK1) S218D S222D (Homo sapiens, UniProt Q02750, S218D/S222D)
T37 construct: purchased Thermo Fisher Scientific SelectScreen (plus Nanosyn / Reaction Biology for CDK/cyclin lines)
Method in brief: as §1

CDK9 (Inactive) = molecular target: T38, CDK9 (Inactive) (Homo sapiens, UniProt P50750)
T38 construct: purchased Thermo Fisher Scientific SelectScreen (plus Nanosyn / Reaction Biology for CDK/cyclin lines)
T38 sequence (P50750 whole entry): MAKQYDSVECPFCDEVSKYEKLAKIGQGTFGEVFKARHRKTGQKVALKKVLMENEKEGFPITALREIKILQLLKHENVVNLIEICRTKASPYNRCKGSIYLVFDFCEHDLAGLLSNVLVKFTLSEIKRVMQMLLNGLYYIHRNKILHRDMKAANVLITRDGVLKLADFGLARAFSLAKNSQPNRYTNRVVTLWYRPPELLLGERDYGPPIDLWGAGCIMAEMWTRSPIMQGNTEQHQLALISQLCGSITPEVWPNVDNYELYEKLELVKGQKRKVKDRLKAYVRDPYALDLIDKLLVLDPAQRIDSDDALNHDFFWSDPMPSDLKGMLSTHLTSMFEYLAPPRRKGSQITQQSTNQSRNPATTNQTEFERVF
Method in brief: as §1

## NS(=O)(=O)c1ccc(Nc2ncc3cc4n(c3n2)C2(CCCCC2)C(=O)NN4)cc1 [INX-315]
TNIK
  inhibition at 0.1 µM: 12%
CAMK2G (CaMKII gamma)
  inhibition at 0.1 µM: -1%
BMPR2
  inhibition at 0.1 µM: 17%
STK16 (PKL12)
  inhibition at 0.1 µM: 57%
KIT V654A
  inhibition at 0.1 µM: 26%
MAP3K2 (MEKK2)
  inhibition at 0.1 µM: 12%
TGFBR2
  inhibition at 0.1 µM: 7%
MAP2K2 (MEK2)
  inhibition at 0.1 µM: 0%
ACVRL1 (ALK1)
  inhibition at 0.1 µM: 2%
MAP4K1 (HPK1)
  inhibition at 0.1 µM: 17%
PLK4
  inhibition at 0.1 µM: 29%
ACVR2B
  inhibition at 0.1 µM: -2%
ULK3
  inhibition at 0.1 µM: 25%
KIT Y823D
  inhibition at 0.1 µM: 31%
ABL1 H396P
  inhibition at 0.1 µM: 12%
MKNK2 (MNK2)
  inhibition at 0.1 µM: 2%
DDR2
  inhibition at 0.1 µM: 18%
AMPK (A1/B1/G3)
  inhibition at 0.1 µM: 19%
CDK11 (Inactive)
  inhibition at 0.1 µM: 2%
MYLK (MLCK)
  inhibition at 0.1 µM: 6%
TESK1
  inhibition at 0.1 µM: 2%
STK32B (YANK2)
  inhibition at 0.1 µM: 3%
TLK1
  inhibition at 0.1 µM: 0%
CDK2/cyclin O
  inhibition at 0.1 µM: 98%
EPHA3
  inhibition at 0.1 µM: -1%
PRKACG (PRKAC gamma)
  inhibition at 0.1 µM: -12%
MET D1228H
  inhibition at 0.1 µM: -6%
CDK5 (Inactive)
  inhibition at 0.1 µM: 80%
CDK16 (PCTK1)/cyclin Y
  inhibition at 0.1 µM: 64%
BRAF
  inhibition at 0.1 µM: -1%
CDK8/cyclin C
  inhibition at 0.1 µM: 0%
WNK2
  inhibition at 0.1 µM: -9%
TGFBR1 (ALK5)
  inhibition at 0.1 µM: 4%
MYO3A (MYO3 alpha)
  inhibition at 0.1 µM: 6%
STK32C (YANK3)
  inhibition at 0.1 µM: -1%
EPHA7
  inhibition at 0.1 µM: 9%
[1]
  inhibition at 0.1 µM: 1%
CDK9 (Inactive)
  inhibition at 0.1 µM: 44%
